Experimental data as given in PMC10285260, “Processive kinetics in the three-step lanosterol 14α-demethylation reaction catalyzed by human cytochrome P450 51A1” (The Journal of Biological Chemistry, 2023).

Key:
human P450 51A1 [1] = target: T1, human P450 51A1 (Homo sapiens, UniProt Q16850); experiment: Inhibition of dihydrolanosterol 14-demethylation (oxidation to dihydro FF-MAS); type: biochemical; set-up: made in house; host or cells: Escherichia coli
T1 sequence (Q16850 1-509): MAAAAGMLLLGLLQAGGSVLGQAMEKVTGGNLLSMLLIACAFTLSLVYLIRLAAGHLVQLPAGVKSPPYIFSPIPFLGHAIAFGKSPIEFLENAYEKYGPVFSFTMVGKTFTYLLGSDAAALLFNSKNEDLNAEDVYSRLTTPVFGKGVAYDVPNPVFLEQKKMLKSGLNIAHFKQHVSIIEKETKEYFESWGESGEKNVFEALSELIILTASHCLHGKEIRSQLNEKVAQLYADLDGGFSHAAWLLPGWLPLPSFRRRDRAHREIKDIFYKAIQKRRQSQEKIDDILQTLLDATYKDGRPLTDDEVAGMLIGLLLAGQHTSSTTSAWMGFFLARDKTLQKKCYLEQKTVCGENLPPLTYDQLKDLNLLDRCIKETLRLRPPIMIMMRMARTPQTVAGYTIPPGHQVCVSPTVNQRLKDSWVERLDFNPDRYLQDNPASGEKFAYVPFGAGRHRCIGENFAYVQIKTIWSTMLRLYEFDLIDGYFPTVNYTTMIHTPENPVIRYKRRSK
Description: Agnosterol (Fig. 2) is a common Δ^7,14 contaminant of commercial lanosterol preparations (Fig. S22) ([25], [36]). We also encountered this molecule and its derivatives, with its characteristic UV spectra derived from our synthesis beginning with 7-dehydrocholesterol (Figs. S1 and S17). The most likely entry point is the m-chloroperbenzoic acid epoxidation (Fig. S1, step 7) ([37]). […] The contaminant could be removed by preparative HPLC (C18, CH3CN, see Supporting Information).
epi-Dihydrolanosterol, which appears to be an obscure natural product ([32]), was recovered as a side product in one of the synthetic steps and shown to bind to human P450 51A1 tightly and be demethylated at a similar rate as the common β-hydroxy isomer (Figs 5B and 7A), behavior similar to that earlier reported for the yeast (Saccharomyces cerevisiae) enzyme ([34]). An H-bond between the sterol C3-OH and the main chain oxygen of a P450 51 residue preceding the beginning of the β1-4 strand is observed in four P450 51 structures in the Protein Data Bank: Trypanosoma brucei [3P99] ([48]), Trypanosoma cruzi [6FMO] ([49]), human [6UEZ] ([19]), plus a sterol-forming bacterium, Methylococcus capsulatus [7SNM] ([50]). Whether this interaction is replaced by another with epi-lanosterol is presently a point of conjecture and future research. […]

human P450 51A1 [2] = target: T1, human P450 51A1; experiment: Oxidation of dihydroagnosterol by human P450 51A1 (LC-UV); type: biochemical; set-up: made in house; host or cells: Escherichia coli
Method: The possibility existed that this molecule could be a substrate. […] However, on the basis of the UV and mass spectra and literature precedents ([38], [39]), we have assigned the structure as 4,4′-dimethylcholesta-7,9,14-trienol. The UV spectrum retains (Fig. 6) the detailed chromophore of agnosterol (Fig. S23) plus an additional transition at higher wavelength, as expected based on the UV spectrum of FF-MAS (Fig. S18).
Figure 6 Oxidation of dihydroagnosterol by human P450 51A1. The incubation included 0.1 μM P450 51A1 and 10 μM dihydroagnosterol and ran for 10 min at 37 °C in the absence and presence of NADPH. The products were extracted and analyzed by UPLC-UV and UPLC-MS. A, UPLC chromatogram (UV, 192 and 245 nm). B, mass spectrum [M+H-H2O]^+, calculated for C29H45, 393.3516; found, 393.3493 (−5.9 ppm) and assigned structure. C, UV spectrum (from tR 7.3 min peak of A). UPLC, ultra-performance liquid chromatography.

## CC(C)CCCC(C)[C@H]1CC[C@@]2(C)C3=CCC4C(C)(C)[C@@H](O)CC[C@]4(C)C3=CC[C@]12C (stereo partly drawn) [dihydroagnosterol]
Human P450 51A1 [1]
  IC50: ≥ 10 µM
Human P450 51A1 [2]
  rate of disappearance relative to that of dihydrolanosterol: one-half
Human P450 51A1 [2]; 0.1 μM P450 51A1, 10 μM dihydroagnosterol, 37 °C
  rate of disappearance: ~10 min⁻¹
